Test results taken from patent publication US20250275964A1, “METHODS OF INHIBITING LIVER-TYPE GLUTAMINASE, GLS2” (CORNELL UNIVERSITY, priority 2019, published 2025).

Assays:
[1] = test system: MDA-MB-231 cells; assay: 6-day cell proliferation assay, MDA-MB-231; format: cell-based, human; settings: Homo sapiens, 144 h; MDA-MB-231, proliferation over 6 days
Procedure: (§1) Human breast cancer cell lines MCF7, BT-474, T-47D, MDA-MB-453, MDA-MB-231, Hs 578T, HCC38, SK-BR-3, and DU4475 were purchased from the American Type Culture Collection (ATCC) and no additional cell authentication was performed. The TSE human breast cancer cell line was supplied by Dr. Steven Abcouwer (University of Michigan). All breast cancer cells were cultured at 37° C. under a 5% CO2 atmosphere in RPMI 1640 medium containing 2 mM glutamine (Gibco) and supplemented with 10% fetal bovine serum (FBS) (Gibco). The 293T cell line (ATCC) used for generating lentivirus particles was cultured as above but using DMEM, high glucose (Gibco).
(§2) Culture medium was added to 12-well plates (1 ml/well) and wells were seeded with cells at Day 0 as follows. MCF7, T-47D, BT-474, HCC38 cells: […] cells/well. MDA-MB-453 and MDA-MB-231 cells: 1×10^4 cells/well. TSE and Hs 578T cells: 0.3×10^4 cells/well. After 16 hours, culture medium was replaced with fresh medium supplemented with appropriate concentrations of inhibitors and was subsequently replaced every 48 hours. On Day 6 cells were trypsinized and suspended in an appropriate volume of culture medium, and the total number of cells per well was determined using a hemocytometer or a TC20 Automated Cell Counter (Bio-Rad).

[2] = test system: T-47D cells; assay: 6-day cell proliferation assay, T-47D; format: cell-based, human; settings: Homo sapiens, T47D, 144 h, proliferation over 6 days
Procedure: as §1, §2

[3] = test system: MCF7 cells; assay: 6-day cell proliferation assay, MCF7; format: cell-based, human; settings: Homo sapiens, 144 h; MCF7, proliferation over 6 days
Procedure: as §1, §2

[4] = test system: TSE cells; assay: 6-day cell proliferation assay, TSE; format: cell-based, human; settings: Homo sapiens, 144 h; TSE, proliferation over 6 days
Procedure: as §1, §2

[5] = test system: HCC38 cells; assay: 6-day cell proliferation assay, HCC38; format: cell-based, human; settings: Homo sapiens, 144 h; HCC38, proliferation over 6 days
Procedure: as §1, §2

[6] = test system: Hs 578T cells; assay: 6-day cell proliferation assay, Hs 578T; format: cell-based, human; settings: Homo sapiens, 144 h, proliferation over 6 days
Procedure: as §1, §2

[7] = test system: MDA-MB-453 cells; assay: 6-day cell proliferation assay, MDA-MB-453; format: cell-based, human; settings: Homo sapiens, 144 h; MDA-MB-453, proliferation over 6 days
Procedure: as §1, §2

[8] = target: T1, recombinant full-length human GLS2 (Homo sapiens, UniProt Q9UI32); assay: Real-time recombinant glutaminase activity assay, GLS2; format: biochemical; settings: different concentrations
T1 construct: GLS2 (residues 38 to 602) in E. coli; inferred from pQE80 vector and Ni-NTA/imidazole purification; made in house; host or cells: E. coli BL21(DE3)
T1 sequence (Q9UI32 38-602): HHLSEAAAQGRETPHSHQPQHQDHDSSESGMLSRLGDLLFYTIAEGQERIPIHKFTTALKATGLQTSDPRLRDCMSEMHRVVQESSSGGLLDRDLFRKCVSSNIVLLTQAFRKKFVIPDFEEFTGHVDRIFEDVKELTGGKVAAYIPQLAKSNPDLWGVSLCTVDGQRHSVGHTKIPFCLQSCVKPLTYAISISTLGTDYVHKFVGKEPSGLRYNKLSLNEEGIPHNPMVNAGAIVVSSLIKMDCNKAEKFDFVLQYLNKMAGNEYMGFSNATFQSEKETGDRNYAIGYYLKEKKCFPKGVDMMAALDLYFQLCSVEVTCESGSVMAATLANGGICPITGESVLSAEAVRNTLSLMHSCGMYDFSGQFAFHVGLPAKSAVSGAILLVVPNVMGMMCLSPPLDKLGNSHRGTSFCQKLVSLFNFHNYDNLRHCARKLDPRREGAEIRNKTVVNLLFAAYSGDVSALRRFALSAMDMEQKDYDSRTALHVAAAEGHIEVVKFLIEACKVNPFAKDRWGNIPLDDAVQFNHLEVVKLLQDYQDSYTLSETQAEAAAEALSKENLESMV
Procedure: Real-time monitoring of glutaminase activity through NADH production was performed on a Cary Eclipse fluorescence spectrometer. The excitation and emission wavelengths were set at 340 nm and 460 nm, respectively. To a 1 ml cuvette, 900 μl of assay buffer was added, followed by 10 μl of GDH, 40 μl of 50 mM NAD and 20 μl of either DMSO or various dilutions of 968. Then, 100 μl of either 100 nM GAC or 500 nM GLS2 was added to this mixture and the fluorescence emission was monitored in real time. After 30 s, 200 μl of a mixture of glutamine and K2HPO4 was added such that the final concentrations of K2HPO4 and glutamine were 100 mM and 20 mM, respectively. The initial velocity of glutamine hydrolysis was obtained from the slopes of the linear portion of the kinetic curve.
Recombinant GAC and GLS2 were expressed in E. coli as described in Huang et al., “Characterization of the Interactions of Potent Allosteric Inhibitors with Glutaminase C, a Key Enzyme in Cancer Cell Glutamine Metabolism,” J. Biol. Chem. 293:3535-3545 (2018), which is hereby incorporated by reference in its entirety. Briefly, E. coli strain BL21(DE3) (Thermo Fisher Scientific) were transformed with vector pQE80-GAC-72-598 or with pQE80-GLS2-38-602 to express the processed forms of GAC and GLS2, respectively. For both constructs, expression was induced with 0.3 mM IPTG for 20 hours at 18° C., and cells were then harvested by centrifugation and lysed by sonication in binding buffer (500 mM NaCl, 50 mM Tris-HCl pH 8.5, 10 mM imidazole, 5 mM β-mercaptoethanol, 1 mM benzamidine chloride). The lysate was centrifuged, and the supernatant applied to a Ni-NTA column which was then washed with 100 column volumes of binding buffer followed by 10 volumes of wash buffer (500 mM NaCl, 50 mM Tris-HCl pH 8.5, 40 mM imidazole, 5 mM β-mercaptoethanol, 1 mM benzamidine chloride). Protein was eluted with 5 column volumes of elution buffer (500 mM NaCl, 300 mM imidazole-HCl pH 7.5, 5 mM β-mercaptoethanol, 1 mM benzamidine chloride). The eluate was centrifugally concentrated and then further purified by FPLC using a HiLoad 16/600 Superdex 200 column (GE Healthcare) with 150 mM NaCl, 5 mM Tris-HCl pH 7.5.

[9] = test system: BT-474 cells; assay: 6-day cell proliferation assay, BT-474; format: cell-based, human; settings: Homo sapiens, 144 h; BT-474, proliferation over 6 days
Procedure: as §1, §2

[10] = test system: GLS2 protein levels in TSE cells; assay: Western blot of GLS2 in TSE cells treated with hypomethylating agent; format: cell-based, human; settings: 48 hours
Procedure: Cells, or fractionated mitochondria and nuclei, were lysed with ice-cold lysis buffer (50 mM HEPES pH 8.0, 150 mM NaCl, 25 mM NaF, 1% (v/v) Triton X-100, 1 mM MgCl2, 50 mM β-glycerophosphate, 30 μg/ml leupeptin, 5 μg/ml aprotinin), and insoluble debris cleared by centrifugation at 4° C. Protein concentrations were determined by Bradford assay (Bio-Rad), and lysate was then boiled for 10 min in reducing SDS-sample buffer. Lysate proteins (20 μg total protein/lane, except for the cell fractionation experiment in which 5 μg total protein/lane was used) were then resolved on Novex 12% Tris-Glycine Mini Gels (Thermo Fisher Scientific) and transferred to PVDF membrane (PerkinElmer). Membranes were blocked in 7% BSA in Tris-Buffered Saline plus 0.05% TWEEN 20 (TBST) for 1 hour at room temperature and probed overnight at 4° C. in primary antibody solution in TBST (see Table 3 for antibody dilutions). They were then washed with TBST and incubated in TBST containing 25% (v/v) non-fat dry milk powder and anti-Rabbit or anti-Mouse secondary antibody (1:2500) for 1 hour. Finally, membranes were washed in TBST, and imaged using Western Lightning Plus-ECL (PerkinElmer) and HyBlot ES autoradiography film (Denville Scientific Inc.).

[11] = test system: breast cancer cell lines; settings: previously reported (Huang et al. 2018); cited from earlier work

O=C(Cc1cccc(OC(F)(F)F)c1)Nc1ccc(CCCCc2nnc(NC(=O)Cc3ccccn3)s2)nn1 [CB-839]
EC50 [1]: 19 nM
EC50 [2]: > 1000 nM
EC50 [3]: > 1000 nM
EC50 [4]: 41 nM
EC50 [5]: 49 nM
EC50 [6]: 31 nM
EC50 [7]: > 1000 nM
inhibition of recombinant GLS2 activity [8]: resistance
EC50 [9]: > 1000 nM

Nc1ncn([C@@H]2O[C@H](CO)[C@@H](O)[C@H]2O)c(=O)n1 [azacitidine]
GLS2 protein levels [10]: increased

O=C(Cc1ccccc1)Nc1nnc(NC2CCN(c3nnc(NC(=O)Cc4ccccc4)s3)CC2)s1 [UPGL00004]
selectivity profile, basal- versus luminal-subtype cells [11]: same selectivity profile
